Data taken from EP2826473A1, “NOVEL USE OF PATCHOULOL” (Chengdu Huasun Group Inc., Ltd., priority 2012, dated 2013).
In brackets after ≈: the same amount, converted by molar mass. Where two headings read alike, the source gives them in different places.

Columns and labels:
[1] = test system: Streptococcus bovis; assay: in vitro bacteriostatic activity, agar dilution MIC; assay type: cell-based; settings: Streptococcus equinus; Streptococcus bovis 12-3
[2] = test system: Megasphaera elsdenii; assay: as above; assay type: cell-based
[3] = test system: Staphylococcus wameri; assay: as above; assay type: cell-based
[4] = test system: Staphylococcus sciuri; assay: as above; assay type: cell-based; settings: Mammaliicoccus sciuri; Staphylococcus sciuri 12-1
[5] = test system: Chryseobacterium indologenes; assay: as above; assay type: cell-based
[6] = test system: Pseudomonas aeruginosa; assay: as above; assay type: cell-based; settings: Pseudomonas aeruginosa12-1
[7] = test system: Escherichia coli E^+; assay: as above; assay type: cell-based
Description: (§1) Preparation of drug-containing flat plates: patchoulol was diluted by coubling double dilution in DMSO, and 1 ml and 14 ml of sterile MH culture media in different gradient concentrations were respectively added to the disposable sterile petri dishes. Tested drugs were respectively diluted to different gradient concentrations from 768 to 0.006 µg/ml, fully mixed, and dried to reserve. As mentioned above, replacing tested drug with same amount of normal saline was used to prepare positive control plates.
(§2) Preparation of bacterial liquid: Tested strains and drug-sensitive strains used for quality control were diluted with stroke-physiological saline solution to the concentration of 10^6 CFU/ml.
(§3) Bacteriostatic activity assay […]: using multipoint inoculation instrument, the tested strain liquid was added to the drug-containing flat plates with different gradient concentrations and positive control plates respectively, and replacing the bacterial liquid with 5 µL normal saline, served as the negative control.
(§4) Staphylococcus aureus and Staphylococcus epidermidis were cultured at 35-37°C for 18-24 h in MH media (containing 2% NaCl); Streptococcus pneumonia was cultured in brain heart infusion agar media (containing 5% goat blood) within an incubator under 5% CO2 at 35°C for 24 hours; Gram-negative bacteria and other strains were placed in an incubator at 35-37°C and cultured for 18-20 h; Results were observed and recorded.
(§5) Result assessment: The minimum concentration of drug in no bacterial growth plates was regarded as the minimum inhibitory concentration (MIC) of the drug to the stain.

[8] = test system: Shiglla flexneri; assay: as above; assay type: cell-based
Description: as §1, §2, §3, §4, §5

[9] = test system: Staphylococcus aureus MRSA; assay: as above; assay type: cell-based
[10] = test system: Escherichia coli E^-; assay: as above; assay type: cell-based
[11] = test system: Klebsiella pneumonia E^-; assay: as above; assay type: cell-based
[12] = test system: Gram-positive bacteria and Gram-negative bacteria; assay: in vitro bacteriostatic activity, summary of Tables 1-5; assay type: cell-based; settings: read-out: MIC values
Description: as §1
Preparation of bacterial liquid: Tested strains and drug-sensitive strains used for quality control were diluted with stroke-physiological saline solution to the concentration of 10^6 CFU/ml. […]
Staphylococcus aureus and Staphylococcus epidermidis were cultured at 35-37°C for 18-24 h in MH media (containing 2% NaCl); Streptococcus pneumonia was cultured in brain heart infusion agar media (containing 5% goat blood) within an incubator under 5% CO2 at 35°C for 24 hours; Gram-negative bacteria and other strains were placed in an incubator at 35-37°C and cultured for 18-20 h; Results were observed and recorded. […]

[13] = test system: termites; settings: in vivo; cited from earlier work
[14] = mouse, in vivo, po; cited from earlier work

C[C@H]1CC[C@@]2(O)C(C)(C)[C@@H]3CC[C@@]2(C)[C@H]1C3 (stereo in doubt) [PC, (1R,4S,4aS,6R,8aS)-octahydro-4,8a,9,9-tetramethyl-1,6-methanonaphthalen-1(2H)-ol]
MIC [1]: 50 µg/mL (≈ 225 µM) | MIC ([2]; Megasphaera elsdenii 12-1): 50 µg/mL (≈ 225 µM) | MIC ([2]; Megasphaera elsdenii 12-2): 25 µg/mL (≈ 112 µM) | MIC ([2]; Megasphaera elsdenii 12-3): 50 µg/mL (≈ 225 µM) | MIC ([2]; Megasphaera elsdenii 12-4): 50 µg/mL (≈ 225 µM) | MIC [3]: 50 µg/mL (≈ 225 µM) | MIC [4]: 50 µg/mL (≈ 225 µM) | MIC ([5]; Chryseobacterium indologenes12- (first line, r25)): 25 µg/mL (≈ 112 µM) | MIC ([5]; Chryseobacterium indologenes12- (second line, r26)): 100 µg/mL (≈ 450 µM) | MIC [6]: 50 µg/mL (≈ 225 µM) | MIC ([7]; Escherichia coli E^+ 10-7): > 768 µg/mL | MIC ([7]; Escherichia coli E^+ 10-9): > 768 µg/mL | MIC ([8]; Shiglla flexneri 12-1): 400 µg/mL (≈ 1800 µM) | MIC ([8]; Shiglla flexneri 12-2, read-out: MIC): 50 µg/mL (≈ 225 µM) | MIC ([9]; ATCC 43300 / MRSA, Methicillin-resistant Staphylococcus aureus ATCC 43300, read-out: MIC): 128 µg/mL (≈ 576 µM) | MIC ([9]; MRSA, Staphylococcus aureus MRSA 10-31, read-out: MIC): 1.5 µg/mL (≈ 6.75 µM) | MIC ([9]; MRSA, Staphylococcus aureus MRSA 10-32, read-out: MIC): 1.5 µg/mL (≈ 6.75 µM) | MIC ([9]; MRSA, Staphylococcus aureus MRSA 12-11, read-out: MIC): 128 µg/mL (≈ 576 µM) | MIC ([9]; MRSA, Staphylococcus aureus MRSA 12-12, read-out: MIC): 128 µg/mL (≈ 576 µM) | MIC ([9]; MRSA, Staphylococcus aureus MRSA 12-13, read-out: MIC): 64 µg/mL (≈ 288 µM) | MIC ([9]; MRSA, Staphylococcus aureus MRSA 12-14, read-out: MIC): 64 µg/mL (≈ 288 µM) | MIC ([9]; MRSA, Staphylococcus aureus MRSA 12-15, read-out: MIC): 64 µg/mL (≈ 288 µM) | MIC ([9]; MRSA, Staphylococcus aureus MRSA 12-16, read-out: MIC): 64 µg/mL (≈ 288 µM) | MIC ([9]; MRSA, Staphylococcus aureus MRSA 12-17, read-out: MIC): 128 µg/mL (≈ 576 µM) | MIC ([9]; MRSA, Staphylococcus aureus MRSA 12-18, read-out: MIC): 128 µg/mL (≈ 576 µM) | MIC ([9]; MRSA, Staphylococcus aureus MRSA 12-19, read-out: MIC): 64 µg/mL (≈ 288 µM) | MIC ([9]; MRSA, Staphylococcus aureus MRSA 12-20, read-out: MIC): 128 µg/mL (≈ 576 µM) | MIC ([10]; Escherichia coli E^- 10-12): > 768 µg/mL | MIC ([10]; Escherichia coli E^- 10-18): > 768 µg/mL | MIC ([11]; Klebsiella pneumonia E^- 10-18): >768 µg/mL | MIC ([11]; Klebsiella pneumoniae, Klebsiella pneumonia E^- 10-16, read-out: MIC): > 768 µg/mL | MIC [12]: 1.5 to 200 µg/mL (≈ 6.75 to 899 µM) | effect on termites [13]: obviously toxic and removal effect | maximum tolerated dose [14]: less than 12.5 g/kg
